# Tests used:
# Assay in all cases: Post-emergence herbicidal activity test (stem and leaf spray, pot culture)
# Assay type in all cases: in vivo
# Details in all cases: 3 weeks after spraying
# Echinochloa crusgalli = test system: Echinochloa crusgalli
# Experimental: (§1) The weeds were cultivated in a 180 mm×140 mm plastic nutrient pot by a pot-culture method, placed in an enamel tray, and the plastic nutrient pots were filled with surface soil (⅘ of a depth) collected from a farmland and air-dried and sieved, and a soil humidity was controlled at 20% in the initial stage. Weed seeds with plump and uniform grains were selected, soaked in warm water at 25° C. for 6 h, and germinated in a biochemical incubator (dark) at 28° C. The freshly exposed weed seeds were evenly placed on the soil surface, and then covered with 0.5 cm to 1 cm of soil according to the size of the seeds. The weeds are cultivated in a controlled sunlight greenhouse at 20° C. to 30° C., under natural light, and a relative humidity of 57% to 72%. The soil was loam, including 1.63% of organic matters, with a pH value of 7, 84.3 mg/kg of alkaline nitrogen, 38.5 mg/kg of available phosphorus, and 82.1 mg/kg of available potassium.
# (§2) Each treatment was repeated 2 times, each treatment included 12 pots, and 20 weed seeds were sown in each pot. Pesticide was applied in the test for 1 time in total. When the weeds grew to 1.5- to 2-leaf stage, thinning was conducted, with 10 weeds in each pot, and 30 weeds were kept in each treatment.
# (§3) The cultivated weeds were placed on trays with an area of 0.1 m^2, and stems and leaves were sprayed with a sprayer. After applying a pesticide, the pesticide applied weeds were moved into a greenhouse for routine cultivation.
# (§4) 2 weeks after sowing, the test plants were treated at the 2- to 3-leaf stage: the compounds of the present disclosure for testing were dissolved in acetone separately, and added with Tween 80, an emulsifiable oil of 1.5 liters/ha methyl oleate was added as a synergist, and an obtained mixture was diluted with certain water to a certain concentration solution. The solution was sprayed onto the plants using a spray tower. After spraying, the weeds were cultivated in the greenhouse for 3 weeks, and the experimental effects on the weeds were counted. The effective concentrations of the compounds were 10 g/mu, 5 g/mu, and 2.5 g/mu, the experiment was repeated three times, and an average result was taken.
# (§5) The activity level criteria for plant destruction (i.e. growth control rate) are as follows: • Grade 5: the growth control rate is greater than or equal to 85%; • Grade 4: the growth control rate is greater than or equal to 60% and less than 85%; • Grade 3: the growth control rate is greater than or equal to 40% and less than 60%; • Grade 2: the growth control rate is greater than or equal to 20% and less than 40%; • Grade 1: the growth control rate is greater than or equal to 5% and less than 20%; and • Grade 0: the growth control rate is less than 5%.
# (§6) The growth control rate is a fresh weight control rate.
# Abutilon theophrasti = test system: Abutilon theophrasti
# Experimental: as §1, §2, §3, §4, §5, §6
# Portulaca oleracea = test system: Portulaca oleracea
# Experimental: as §1, §2, §3, §4, §5, §6
# Setaria viridis = test system: Setaria viridis
# Experimental: as §1, §2, §3, §4, §5, §6
# Amaranthus retroflexus = test system: Amaranthus retroflexus
# Experimental: as §1, §2, §3, §4, §5, §6
# Trifoliumre pensL. = test system: Trifoliumre pensL.
# Experimental: (1) Post-Emergence Stem and Leaf Spray Treatment: The weeds were cultivated in a 180 mm×140 mm plastic nutrient pot by a pot-culture method, placed in an enamel tray, and the plastic nutrient pots were filled with surface soil (⅘ of a depth) collected from a farmland and air-dried and sieved, and a soil humidity was controlled at 20% in the initial stage. Weed seeds with plump and uniform grains were selected, soaked in warm water at 25° C. for 6 h, and germinated in a biochemical incubator (dark) at 28° C. The freshly exposed weed seeds were evenly placed on the soil surface, and then covered with 0.5 cm to 1 cm of soil according to the size of the seeds. The weeds are cultivated in a controlled sunlight greenhouse at 20° C. to 30° C., under natural light, and a relative humidity of 57% to 72%. The soil was loam, including 1.63% of organic matters, with a pH value of 7, 84.3 mg/kg of alkaline nitrogen, 38.5 mg/kg of available phosphorus, and 82.1 mg/kg of available potassium. Each treatment was repeated 2 times, each treatment included 12 pots, and 20 weed seeds were sown in each pot. Pesticide was applied in the test for 1 time in total. When the weeds grew to 1.5- to 2-leaf stage, thinning was conducted, with 10 weeds in each pot, and 30 weeds were kept in each treatment. The cultivated weeds were placed on trays with an area of 0.1 m^2, and stems and leaves were sprayed with a sprayer. After applying a pesticide, the pesticide applied weeds were moved into a greenhouse for routine cultivation. 2 weeks after sowing, the test plants were treated at the 2- to 3-leaf stage: the compounds of the present disclosure for testing were dissolved in acetone separately, and added with Tween 80, an emulsifiable oil of 1.5 liters/ha methyl oleate was added as a synergist, and an obtained mixture was diluted with certain water to a certain concentration solution. The solution was sprayed onto the plants using a spray tower. After spraying, the weeds were cultivated in the greenhouse for 3 weeks, and the experimental effects on the weeds were counted. The effective concentrations of the compounds were 10 g/mu, 5 g/mu, and 2.5 g/mu, the experiment was repeated three times, and an average result was taken.
smiles,measurement,setting,value
O=C1C2=C(CCCC2)C(=O)N1c1cc(OCc2nc(-c3ccc(OC(F)(F)F)cc3)no2)c(Cl)cc1F [Compound A20],"Post-emergence herbicidal activity, E. crusgalli (grade)",Echinochloa crusgalli; dosage 2.5 g/mu,1 (Grade 1: the growth control rate is greater than or equal to 5% and less than 20%)
same,"Post-emergence herbicidal activity, E. crusgalli (grade)",Echinochloa crusgalli; dosage 5 g/mu,2 (Grade 2: the growth control rate is greater than or equal to 20% and less than 40%)
same,"Post-emergence herbicidal activity, E. crusgalli (grade)",Echinochloa crusgalli; dosage 10 g/mu,3 (Grade 3: the growth control rate is greater than or equal to 40% and less than 60%)
same,"Post-emergence herbicidal activity, A. theophrasti (grade)",Abutilon theophrasti; dosage 2.5 g/mu,5 (Grade 5: the growth control rate is greater than or equal to 85%)
same,"Post-emergence herbicidal activity, A. theophrasti (grade)",Abutilon theophrasti; dosage 5 g/mu,5 (Grade 5: the growth control rate is greater than or equal to 85%)
same,"Post-emergence herbicidal activity, A. theophrasti (grade)",Abutilon theophrasti; dosage 10 g/mu,5 (Grade 5: the growth control rate is greater than or equal to 85%)
same,"Post-emergence herbicidal activity, P. oleracea (grade)",Portulaca oleracea; dosage 2.5 g/mu,4 (Grade 4: the growth control rate is greater than or equal to 60% and less than 85%)
same,"Post-emergence herbicidal activity, P. oleracea (grade)",Portulaca oleracea; dosage 5 g/mu,5 (Grade 5: the growth control rate is greater than or equal to 85%)
same,"Post-emergence herbicidal activity, P. oleracea (grade)",Portulaca oleracea; dosage 10 g/mu,5 (Grade 5: the growth control rate is greater than or equal to 85%)
same,"Post-emergence herbicidal activity, S. viridis (grade)",Setaria viridis; dosage 2.5 g/mu,2 (Grade 2: the growth control rate is greater than or equal to 20% and less than 40%)
same,"Post-emergence herbicidal activity, S. viridis (grade)",Setaria viridis; dosage 5 g/mu,3 (Grade 3: the growth control rate is greater than or equal to 40% and less than 60%)
same,"Post-emergence herbicidal activity, S. viridis (grade)",Setaria viridis; dosage 10 g/mu,4 (Grade 4: the growth control rate is greater than or equal to 60% and less than 85%)
same,"Post-emergence herbicidal activity, A. retroflexus (grade)",Amaranthus retroflexus; dosage 2.5 g/mu,5 (Grade 5: the growth control rate is greater than or equal to 85%)
same,"Post-emergence herbicidal activity, A. retroflexus (grade)",Amaranthus retroflexus; dosage 5 g/mu,5 (Grade 5: the growth control rate is greater than or equal to 85%)
same,"Post-emergence herbicidal activity, A. retroflexus (grade)",Amaranthus retroflexus; dosage 10 g/mu,5 (Grade 5: the growth control rate is greater than or equal to 85%)
same,"Post-emergence herbicidal activity, Trifoliumre pensL. (grade)",Trifoliumre pensL.; dosage 2.5 g/mu,4 (Grade 4: the growth control rate is greater than or equal to 60% and less than 85%)
same,"Post-emergence herbicidal activity, Trifoliumre pensL. (grade)",Trifoliumre pensL.; dosage 5 g/mu,5 (Grade 5: the growth control rate is greater than or equal to 85%)
same,"Post-emergence herbicidal activity, Trifoliumre pensL. (grade)",Trifoliumre pensL.; dosage 10 g/mu,5 (Grade 5: the growth control rate is greater than or equal to 85%)
O=C1C2=C(CCCC2)C(=O)N1c1cc(OCc2nc(-c3ccc(Cl)cc3)no2)c(Cl)cc1F [Compound A5],"Post-emergence herbicidal activity, E. crusgalli (grade)",Echinochloa crusgalli; dosage 2.5 g/mu,1 (Grade 1: the growth control rate is greater than or equal to 5% and less than 20%)
same,"Post-emergence herbicidal activity, E. crusgalli (grade)",Echinochloa crusgalli; dosage 5 g/mu,2 (Grade 2: the growth control rate is greater than or equal to 20% and less than 40%)
same,"Post-emergence herbicidal activity, E. crusgalli (grade)",Echinochloa crusgalli; dosage 10 g/mu,3 (Grade 3: the growth control rate is greater than or equal to 40% and less than 60%)
same,"Post-emergence herbicidal activity, A. theophrasti (grade)",Abutilon theophrasti; dosage 2.5 g/mu,5 (Grade 5: the growth control rate is greater than or equal to 85%)
same,"Post-emergence herbicidal activity, A. theophrasti (grade)",Abutilon theophrasti; dosage 5 g/mu,5 (Grade 5: the growth control rate is greater than or equal to 85%)
same,"Post-emergence herbicidal activity, A. theophrasti (grade)",Abutilon theophrasti; dosage 10 g/mu,5 (Grade 5: the growth control rate is greater than or equal to 85%)
same,"Post-emergence herbicidal activity, P. oleracea (grade)",Portulaca oleracea; dosage 2.5 g/mu,5 (Grade 5: the growth control rate is greater than or equal to 85%)
same,"Post-emergence herbicidal activity, P. oleracea (grade)",Portulaca oleracea; dosage 5 g/mu,5 (Grade 5: the growth control rate is greater than or equal to 85%)
same,"Post-emergence herbicidal activity, P. oleracea (grade)",Portulaca oleracea; dosage 10 g/mu,5 (Grade 5: the growth control rate is greater than or equal to 85%)
same,"Post-emergence herbicidal activity, S. viridis (grade)",Setaria viridis; dosage 2.5 g/mu,2 (Grade 2: the growth control rate is greater than or equal to 20% and less than 40%)
same,"Post-emergence herbicidal activity, S. viridis (grade)",Setaria viridis; dosage 5 g/mu,3 (Grade 3: the growth control rate is greater than or equal to 40% and less than 60%)
same,"Post-emergence herbicidal activity, S. viridis (grade)",Setaria viridis; dosage 10 g/mu,4 (Grade 4: the growth control rate is greater than or equal to 60% and less than 85%)
same,"Post-emergence herbicidal activity, A. retroflexus (grade)",Amaranthus retroflexus; dosage 2.5 g/mu,5 (Grade 5: the growth control rate is greater than or equal to 85%)
same,"Post-emergence herbicidal activity, A. retroflexus (grade)",Amaranthus retroflexus; dosage 5 g/mu,5 (Grade 5: the growth control rate is greater than or equal to 85%)
same,"Post-emergence herbicidal activity, A. retroflexus (grade)",Amaranthus retroflexus; dosage 10 g/mu,5 (Grade 5: the growth control rate is greater than or equal to 85%)
same,"Post-emergence herbicidal activity, Trifoliumre pensL. (grade)",Trifoliumre pensL.; dosage 2.5 g/mu,5 (Grade 5: the growth control rate is greater than or equal to 85%)
same,"Post-emergence herbicidal activity, Trifoliumre pensL. (grade)",Trifoliumre pensL.; dosage 5 g/mu,5 (Grade 5: the growth control rate is greater than or equal to 85%)
same,"Post-emergence herbicidal activity, Trifoliumre pensL. (grade)",Trifoliumre pensL.; dosage 10 g/mu,5 (Grade 5: the growth control rate is greater than or equal to 85%)
O=C1C2=C(CCCC2)C(=O)N1c1cc(OCc2nc(-c3ccccc3Br)no2)c(Cl)cc1F [Compound A4],"Post-emergence herbicidal activity, E. crusgalli (grade)",Echinochloa crusgalli; dosage 2.5 g/mu,1 (Grade 1: the growth control rate is greater than or equal to 5% and less than 20%)
same,"Post-emergence herbicidal activity, E. crusgalli (grade)",Echinochloa crusgalli; dosage 5 g/mu,2 (Grade 2: the growth control rate is greater than or equal to 20% and less than 40%)
same,"Post-emergence herbicidal activity, E. crusgalli (grade)",Echinochloa crusgalli; dosage 10 g/mu,3 (Grade 3: the growth control rate is greater than or equal to 40% and less than 60%)
same,"Post-emergence herbicidal activity, A. theophrasti (grade)",Abutilon theophrasti; dosage 2.5 g/mu,5 (Grade 5: the growth control rate is greater than or equal to 85%)
same,"Post-emergence herbicidal activity, A. theophrasti (grade)",Abutilon theophrasti; dosage 5 g/mu,5 (Grade 5: the growth control rate is greater than or equal to 85%)
same,"Post-emergence herbicidal activity, A. theophrasti (grade)",Abutilon theophrasti; dosage 10 g/mu,5 (Grade 5: the growth control rate is greater than or equal to 85%)
same,"Post-emergence herbicidal activity, P. oleracea (grade)",Portulaca oleracea; dosage 2.5 g/mu,4 (Grade 4: the growth control rate is greater than or equal to 60% and less than 85%)
same,"Post-emergence herbicidal activity, P. oleracea (grade)",Portulaca oleracea; dosage 5 g/mu,5 (Grade 5: the growth control rate is greater than or equal to 85%)
same,"Post-emergence herbicidal activity, P. oleracea (grade)",Portulaca oleracea; dosage 10 g/mu,5 (Grade 5: the growth control rate is greater than or equal to 85%)
same,"Post-emergence herbicidal activity, S. viridis (grade)",Setaria viridis; dosage 2.5 g/mu,2 (Grade 2: the growth control rate is greater than or equal to 20% and less than 40%)
same,"Post-emergence herbicidal activity, S. viridis (grade)",Setaria viridis; dosage 5 g/mu,3 (Grade 3: the growth control rate is greater than or equal to 40% and less than 60%)
same,"Post-emergence herbicidal activity, S. viridis (grade)",Setaria viridis; dosage 10 g/mu,4 (Grade 4: the growth control rate is greater than or equal to 60% and less than 85%)
same,"Post-emergence herbicidal activity, A. retroflexus (grade)",Amaranthus retroflexus; dosage 2.5 g/mu,5 (Grade 5: the growth control rate is greater than or equal to 85%)
same,"Post-emergence herbicidal activity, A. retroflexus (grade)",Amaranthus retroflexus; dosage 5 g/mu,5 (Grade 5: the growth control rate is greater than or equal to 85%)
same,"Post-emergence herbicidal activity, A. retroflexus (grade)",Amaranthus retroflexus; dosage 10 g/mu,5 (Grade 5: the growth control rate is greater than or equal to 85%)
same,"Post-emergence herbicidal activity, Trifoliumre pensL. (grade)",Trifoliumre pensL.; dosage 2.5 g/mu,4 (Grade 4: the growth control rate is greater than or equal to 60% and less than 85%)
same,"Post-emergence herbicidal activity, Trifoliumre pensL. (grade)",Trifoliumre pensL.; dosage 5 g/mu,5 (Grade 5: the growth control rate is greater than or equal to 85%)
same,"Post-emergence herbicidal activity, Trifoliumre pensL. (grade)",Trifoliumre pensL.; dosage 10 g/mu,5 (Grade 5: the growth control rate is greater than or equal to 85%)

# Reference: US20240300932A1, “N-PHENYLIMINE DERIVATIVE AND PREPARATION METHOD AND USE THEREOF” (Guizhou University, priority 2023, published 2024)
